tested on: parasites (ring stage, in human red blood cell culture); assay: Parasite LDH growth assay (antiparasite potency, Parasite Assay); assay type: cell-based, Plasmodium falciparum; settings: Plasmodium falciparum, Erythrocyte, 72 h, 0.7% rings, 2% haematocrit, 72 hours at 37° C., LDH readout of parasite growth
Method in brief: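 Growth was read by an LDH assay after a freeze–thaw cycle (−80 °C overnight, 4 h thaw at RT). Before that, parasites grew with compound for 72 h at 37 °C under gassed, humidified conditions. The input was a ring-stage culture adjusted to 0.7% parasitemia and 2% haematocrit in serum (5%)/albumax (0.5%)-supplemented RPMI-Hepes.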

SMILES | EC50 [nM]
CCC1(CC)CC(=O)N([C@@H]2CCOc3ccc(C(=O)N[C@@H]4c5cc(F)ccc5OC[C@H]4O)cc32)C(=N)N1 [Example 191, (4R)-4-(4,4-diethyl-2-imino-6-oxo-hexahydropyrimidin-1-yl)-N-[(3S,4R)-6-fluoro-3-hydroxy-chroman-4-yl]chromane-6-carboxamide] | 2.6
CCC1(CC)CC(=O)N([C@@H]2CCOc3ccc(C(=O)N[C@H]4c5cc(F)ccc5OC[C@@H]4O)cc32)C(=N)N1 [Example 192, (4R)-4-(4,4-diethyl-2-imino-6-oxo-hexahydropyrimidin-1-yl)-N-[(3R,4S)-6-fluoro-3-hydroxy-chroman-4-yl]chromane-6-carboxamide] | 232
CCC1(CC)CC(=O)N([C@@H]2CCOc3ccc(C(=O)NC(c4ccccc4)c4ccccc4)cc32)C(=N)N1 [Example 194, (4R)-N-benzhydryl-4-(4,4-diethyl-2-imino-6-oxo-hexahydropyrimidin-1-yl)chromane-6-carboxamide] | 0.9
CC1(C)CC(=O)N([C@@H]2CCOc3ccc(C(=O)N[C@@H]4c5cc(Cl)ccc5OC[C@@]4(C)O)cc32)C(=N)N1 [Example 195, (4R)-N-[(3S,4R)-6-chloro-3-hydroxy-3-methyl-chroman-4-yl]-4-(2-imino-4,4-dimethyl-6-oxo-hexahydropyrimidin-1-y)chromane-6-carboxamide] | 3.5
CC[C@]1(C)CC(=O)N([C@@H]2CCOc3ccc(C(=O)N[C@@H]4c5cc(Cl)ccc5OC[C@H]4O)cc32)C(=N)N1 [Example 196, (4R)-N-[(3S,4R)-6-chloro-3-hydroxy-chroman-4-yl]-4-[(4R)-4-ethyl-2-imino-4-methyl-6-oxo-hexahydropyrimidin-1-yl]chromane-6-carboxamide] | 8.6
CCC1(CC)CC(=O)N([C@@H]2CCOc3ccc(C(=O)N[C@H]4c5ccccc5C(F)(F)[C@@H]4O)cc32)C(=N)N1 [Example 197, (4R)-4-(4,4-diethyl-2-imino-6-oxo-hexahydropyrimidin-1-yl)-N-[(1S,2R)-3,3-difluoro-2-hydroxy-indan-1-yl]chromane-6-carboxamide] | 125
CCC1(CC)CC(=O)N([C@@H]2CCOc3ccc(C(=O)N[C@@H]4c5ccccc5C(F)(F)[C@H]4O)cc32)C(=N)N1 [Example 198, (4R)-4-(4,4-diethyl-2-imino-6-oxo-hexahydropyrimidin-1-yl)-N-[(1R,2S)-3,3-difluoro-2-hydroxy-indan-1-yl]chromane-6-carboxamide] | 11.3
CC1(C)CC(=O)N([C@@H]2CC(F)(F)c3ccc(C(=O)N[C@@H]4c5ccccc5OC(C)(C)[C@H]4O)cc32)C(=N)N1 [Example 199, (3R)-1,1-difluoro-N-[(3S,4R)-3-hydroxy-2,2-dimethyl-chroman-4-yl]-3-(2-imino-4,4-dimethyl-6-oxo-hexahydropyrimidin-1-yl)indane-5-carboxamide] | 1.1
CCC1(CC)CC(=O)N([C@@H]2CCOc3ccc(C(=O)NC(c4ccccc4)C4CCCCC4)cc32)C(=N)N1 (stereo partly drawn) [Example 200, (4R)-N-[cyclohexyl(phenyl)methyl]-4-(4,4-diethyl-2-imino-6-oxo-hexahydropyrimidin-1-yl)chromane-6-carboxamide] | 2.9
CCC1(CC)CC(=O)N([C@@H]2CCCc3ccc(C(=O)N[C@@H]4c5ccccc5OC(C)(C)[C@H]4O)cc32)C(=N)N1 [Example 201, (4R)-4-(4,4-diethyl-2-imino-6-oxo-hexahydropyrimidin-1-yl)-N-[(3S,4R)-3-hydroxy-2,2-dimethyl-chroman-4-yl]tetralin-6-carboxamide] | 1.4
CC[C@]1(C)CC(=O)N([C@H]2c3cc(C(=O)N[C@@H]4c5ccccc5C[C@@]4(C)O)ccc3OC[C@@H]2COC)C(=N)N1 [Example 202, (3S,4R)-4-[(4R)-4-ethyl-2-imino-4-methyl-6-oxo-hexahydropyrimidin-1-yl]-N-[(1R,2R)-2-hydroxy-2-methyl-indan-1-yl]-3-(methoxymethyl)chromane-6-carboxamide] | 0.8
CCC1(CC)CC(=O)N([C@H]2C[C@@H](OC)c3ccc(C(=O)N[C@@H]4c5ccccc5OC[C@@]4(C)O)cc32)C(=N)N1 [Example 204, (1R,3S)-3-(4,4-diethyl-2-imino-6-oxo-hexahydropyrimidin-1-yl)-N-[(3S,4R)-3-hydroxy-3-methyl-chroman-4-yl]-1-methoxy-indane-5-carboxamide] | 247
CCC1(CC)CC(=O)N([C@@H]2C[C@H](OC)c3ccc(C(=O)N[C@@H]4c5ccccc5OC[C@@]4(C)O)cc32)C(=N)N1 [Example 205, (1S,3R)-3-(4,4-diethyl-2-imino-6-oxo-hexahydropyrimidin-1-yl)-N-[(3S,4R)-3-hydroxy-3-methyl-chroman-4-yl]-1-methoxy-indane-5-carboxamide] | 2.1
COCC1(C)CC(N2C(=N)NC(C)(C)CC2=O)c2cc(C(=O)N[C@@H]3c4ccccc4C[C@]3(C)O)ccc2O1 (stereo partly drawn) [Example 206, N-[(1R,2S)-2-hydroxy-2-methyl-indan-1-yl]-4-(2-imino-4,4-dimethyl-6-oxo-hexahydropyrimidin-1-yl)-2-(methoxymethyl)-2-methyl-chromane-6-carboxamide] | 66
CCC1(CC)CC(=O)N(C2c3cc(C(=O)N[C@H]4CC(C)(C)Oc5ccccc54)ccc3OCC2O)C(=N)N1 (stereo partly drawn) [Example 207, 4-(4,4-diethyl-2-imino-6-oxo-hexahydropyrimidin-1-yl)-N-[(4S)-2,2-dimethylchroman-4-yl]-3-hydroxy-chromane-6-carboxamide] | 22
CCC1(CC)CC(=O)N(C2c3cc(C(=O)N[C@@H]4c5ccccc5C[C@H]4O)ccc3OCC2(C)OC)C(=N)N1 (stereo partly drawn) [Example 208, 4-(4,4-diethyl-2-imino-6-oxo-hexahydropyrimidin-1-yl)-N-[(1R,2R)-2-hydroxyindan-1-yl]-3-methoxy-3-methyl-chromane-6-carboxamide] | 3.7
CCC1(CC)CC(=O)N(C2CC(C)Oc3ccc(C(=O)N[C@@H]4c5ccccc5OC[C@@]4(C)O)cc32)C(=N)N1 (stereo partly drawn) [Example 209, 4-(4,4-diethyl-2-imino-6-oxo-hexahydropyrimidin-1-yl)-N-[(3S,4R)-3-hydroxy-3-methyl-chroman-4-yl]-2-methyl-chromane-6-carboxamide] | 7.9
CC[C@]1(C)CC(=O)N(C2CC(C)Oc3ccc(C(=O)N[C@@H]4c5ccccc5OC(C)(C)[C@H]4O)cc32)C(=N)N1 (stereo partly drawn) [Example 210, 4-[(4R)-4-ethyl-2-imino-4-methyl-6-oxo-hexahydropyrimidin-1-yl]-N-[(3S,4R)-3-hydroxy-2,2-dimethyl-chroman-4-yl]-2-methyl-chromane-6-carboxamide] | 195
CCC1(CC)CC(=O)N([C@@H]2CCCOc3ccc(C(=O)N[C@@H]4c5ccccc5OC[C@@]4(C)O)cc32)C(=N)N1 [Example 211, (5R)-5-(4,4-diethyl-2-imino-6-oxo-hexahydropyrimidin-1-yl)-N-[(3S,4R)-3-hydroxy-3-methyl-chroman-4-yl]-2,3,4,5-tetrahydro-1-benzoxepine-7-carboxamide] | 8.9
CCC1(CC)CC(=O)N(C2c3cc(C(=O)N[C@@H]4c5ccccc5C[C@@]4(C)O)ccc3OCC2OC)C(=N)N1 (stereo partly drawn) [Example 212, 4-(4,4-diethyl-2-imino-6-oxo-hexahydropyrimidin-1-yl)-N-[(1R,2R)-2-hydroxy-2-methyl-indan-1-yl]-3-methoxy-chromane-6-carboxamide] | 6.5
CCC1(CC)CC(=O)N(C2c3cc(C(=O)N[C@@H]4c5ccccc5C[C@]4(C)O)ccc3OCC2OC)C(=N)N1 (stereo partly drawn) [Example 213, 4-(4,4-diethyl-2-imino-6-oxo-hexahydropyrimidin-1-yl)-N-[(1R,2S)-2-hydroxy-2-methyl-indan-1-yl]-3-methoxy-chromane-6-carboxamide] | 9
CCC1(CC)CC(=O)N([C@H]2c3cc(C(=O)N[C@@H]4c5ccccc5C[C@H]4O)ccc3OC[C@H]2COC)C(=N)N1 [Example 215, (3R,4R)-4-(4,4-diethyl-2-imino-6-oxo-hexahydropyrimidin-1-yl)-N-[(1R,2R)-2-hydroxyindan-1-yl]-3-(methoxymethyl)chromane-6-carboxamide] | 4.2
CCC1(CC)CC(=O)N([C@H]2c3cc(C(=O)N[C@@H]4c5ccccc5C[C@H]4O)ccc3OC[C@@H]2COC)C(=N)N1 [Example 216, (3S,4R)-4-(4,4-diethyl-2-imino-6-oxo-hexahydropyrimidin-1-yl)-N-[(1R,2R)-2-hydroxyindan-1-yl]-3-(methoxymethyl)chromane-6-carboxamide] | 2.7
COC1COc2ccc(C(=O)N[C@@H]3c4ccccc4OC(C)(C)[C@H]3O)cc2C1N1C(=N)NC(C)(C)CC1=O (stereo partly drawn) [Example 217, N-[(3S,4R)-3-hydroxy-2,2-dimethyl-chroman-4-yl]-4-(2-imino-4,4-dimethyl-6-oxo-hexahydropyrimidin-1-yl)-3-methoxy-chromane-6-carboxamide] | 4.9
CC[C@]1(C)CC(=O)N(C2c3cc(C(=O)N[C@@H]4c5ccccc5OC[C@@]4(C)O)ccc3OCC2OC)C(=N)N1 (stereo partly drawn) [Example 218, 4-[(4R)-4-ethyl-2-imino-4-methyl-6-oxo-hexahydropyrimidin-1-yl]-N-[(3S,4R)-3-hydroxy-3-methyl-chroman-4-yl]-3-methoxy-chromane-6-carboxamide] | 64
COCC1(C)Oc2ccc(C(=O)N[C@@H]3c4ccccc4OC[C@@]3(C)O)cc2C1N1C(=N)NC(C)(C)CC1=O (stereo partly drawn) [Example 219, N-[(3S,4R)-3-hydroxy-3-methyl-chroman-4-yl]-3-(2-imino-4,4-dimethyl-6-oxo-hexahydropyrimidin-1-yl)-2-(methoxymethyl)-2-methyl-3H-benzofuran-5-carboxamide] | 208
CC1(C)CC(=O)N([C@@H]2CCS(=O)(=O)c3ccc(C(=O)N[C@H]4CC(C)(C)Oc5ccccc54)cc32)C(=N)N1 [Example 220, (4R)-N-[(4S)-2,2-dimethylchroman-4-yl]-4-(2-imino-4,4-dimethyl-6-oxo-hexahydropyrimidin-1-yl)-1,1-dioxo-3,4-dihydro-2H-thiochromene-6-carboxamide] | 2.9

— patent publication US12350270B2, “Antimalarial agents” (Merck Sharp & Dohme LLC, priority 2019, dated 2025)
